Measurements published in ChEMBL document CHEMBL5500361, “Probing benzenesulfonamide-thiazolidinone hybrids as multitarget directed ligands for efficient control of type 2 diabetes mellitus through targeting the enzymes: α-glucosidase and carbonic anhydrase II” (Eur J Med Chem, 2024).

How the values were obtained:
[1] = molecular target: Carbonic anhydrase 12 (Homo sapiens, UniProt O43570)
Description: Binding affinity to human carbonic anhydrase 12 assessed as inhibition constant incubated for 15 mins by phenol red based stopped-flow CO2 hydration assay

[2] = molecular target: T1, Carbonic anhydrase 2 (Homo sapiens, UniProt P00918)
Description: Binding affinity to human carbonic anhydrase 2 assessed as inhibition constant incubated for 15 mins by phenol red based stopped-flow CO2 hydration assay

[3] = molecular target: T1, Carbonic anhydrase 2; remark: listed apart in the source
Description: Binding affinity to human recombinant carbonic anhydrase 2 assessed as inhibition constant incubated for 15 mins by phenol red based stopped-flow CO2 hydration assay

[4] = molecular target: Carbonic anhydrase 1 (Homo sapiens, UniProt P00915)
Description: Binding affinity to human carbonic anhydrase 1 assessed as inhibition constant incubated for 15 mins by phenol red based stopped-flow CO2 hydration assay

[5] = molecular target: Carbonic anhydrase 9 (Homo sapiens, UniProt Q16790)
Description: Binding affinity to human carbonic anhydrase 9 assessed as inhibition constant incubated for 15 mins by phenol red based stopped-flow CO2 hydration assay

[6] = test system: MCF7; experiment: Antiproliferative activity against human MCF7 cells assessed as inhibition of cell growth under normoxia condition by MTT colorimetric assay
[7] = test system: MCF7; experiment: Antiproliferative activity against human MCF7 cells assessed as inhibition of cell growth under hypoxia condition by MTT colorimetric assay

Sequence of Carbonic anhydrase 12 (O43570 whole entry): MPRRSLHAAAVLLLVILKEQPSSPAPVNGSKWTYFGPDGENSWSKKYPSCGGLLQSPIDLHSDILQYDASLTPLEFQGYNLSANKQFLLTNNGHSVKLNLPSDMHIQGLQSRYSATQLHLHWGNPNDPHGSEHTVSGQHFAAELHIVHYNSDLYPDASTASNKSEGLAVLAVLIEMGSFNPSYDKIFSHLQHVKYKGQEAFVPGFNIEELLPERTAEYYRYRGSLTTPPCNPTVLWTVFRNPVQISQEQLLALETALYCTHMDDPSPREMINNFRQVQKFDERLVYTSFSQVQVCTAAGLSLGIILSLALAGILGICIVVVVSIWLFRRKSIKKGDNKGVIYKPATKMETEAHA
Sequence of Carbonic anhydrase 1 (P00915 whole entry): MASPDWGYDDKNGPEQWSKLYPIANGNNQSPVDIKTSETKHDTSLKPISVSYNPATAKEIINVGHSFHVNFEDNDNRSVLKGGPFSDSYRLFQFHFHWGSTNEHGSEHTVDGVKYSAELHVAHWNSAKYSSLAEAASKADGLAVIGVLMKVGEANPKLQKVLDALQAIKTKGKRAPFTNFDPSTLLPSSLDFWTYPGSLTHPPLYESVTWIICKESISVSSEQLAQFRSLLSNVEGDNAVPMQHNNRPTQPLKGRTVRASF

Row | Structure (SMILES) | Ki [1] | Ki [2] | further results
1 | CCN1C(=O)/C(=C\c2ccc(Cl)cc2)S/C1=N/c1ccc(S(N)(=O)=O)cc1 | 36.3 nM | 30.5 nM | –
2 | COc1ccc(/C=C2/S/C(=N/c3ccc(S(N)(=O)=O)cc3)N(C)C2=O)cc1 | 66.6 nM | 54.6 nM | –
3 | NS(=O)(=O)c1ccc(N2C(=O)CS/C2=N\C(=O)c2ccccc2)cc1 | – | – | Ki [3]: 0.41 nM
4 | CCN1C(=O)/C(=C\c2ccc(OC)cc2)S/C1=N/c1ccc(S(N)(=O)=O)cc1 | 56.6 nM | – | –
5 | NS(=O)(=O)c1ccc(/N=C2\NC(=O)/C(=C\c3ccc(Cl)cc3)S2)cc1 | – | 95.7 nM | –
6 | CCN1C(=O)/C(=C2\C(=O)Nc3ccccc32)S/C1=N/c1ccc(S(N)(=O)=O)cc1 | 9.1 nM | 105 nM | –
7 | CN1C(=O)/C(=C\c2ccc(F)cc2)S/C1=N/c1ccc(S(N)(=O)=O)cc1 | 37 nM | 30.7 nM | –
8 | NS(=O)(=O)c1ccc(/N=C2\NC(=O)/C(=C\c3ccccc3)S2)cc1 | 120 nM | 90.5 nM | –

Second part, led by results:

Row | Ki [1] | Ki [2] | Structure (SMILES) | further results
9 | 77.6 nM | 24.3 nM | COc1ccc(/C=C2/S/C(=N/c3ccc(S(N)(=O)=O)cc3)NC2=O)cc1 | –
10 | 33.5 nM | 23 nM | NS(=O)(=O)c1ccc(/N=C2\NC(=O)/C(=C3\C(=O)Nc4ccccc43)S2)cc1 | Ki [4]: 631 nM; Ki [5]: 47 nM
11 | 96.3 nM | 77.2 nM | CCN1C(=O)/C(=C\c2ccccc2)S/C1=N/c1ccc(S(N)(=O)=O)cc1 | –
12 | – | 7 nM | NS(=O)(=O)c1ccc(/N=C2\NC(=O)/C(=C\c3ccc(F)cc3)S2)cc1 | –
13 | 48.8 nM | – | CN1C(=O)/C(=C\c2ccc(Cl)cc2)S/C1=N/c1ccc(S(N)(=O)=O)cc1 | –
14 | 74.5 nM | 44.5 nM | CN1C(=O)/C(=C\c2ccccc2)S/C1=N/c1ccc(S(N)(=O)=O)cc1 | –
15 | 11 nM | 85 nM | CCN1C(=O)/C(=C\c2ccc(F)cc2)S/C1=N/c1ccc(S(N)(=O)=O)cc1 | IC50 [6]: 21600 nM; IC50 [7]: 34000 nM; Ki [4]: 4420 nM; Ki [5]: 33.9 nM
